Data reported in PMC10741632, “Detection of Dibutyl Phthalate in Surface Water by Fluorescence Polarization Immunoassay” (Biosensors, 2023).
In brackets after ≈: the same amount, converted by molar mass.

Tested on: monoclonal antibody against DBP (MAb-DBP)
Test: competitive fluorescence polarization immunoassay with DBP-AMF tracer ([…] MAb-DBP, […] tracer)
Type: binding, Mus musculus

CCCCOC(=O)c1ccccc1C(=O)OCCCC [Dibutyl phthalate] gave an IC50 of 0.04 ± 0.002 µg/mL (≈ 0.144 µM).
